Like-named read-outs stand apart in the source and are kept apart here.
Legend:
[1] = in vivo; cited from earlier work
[2] = system: rhesus monkeys; conditions: sleep deprivation; cited from earlier work
[3] = system: humans subjected to simulated night shift work; conditions: cited from earlier work
[4] = in vivo; cited from earlier work; remark: listed apart in the source
[5] = system: children aged 7 to 15 with ADHD; conditions: cited from earlier work; for ADHD symptoms and global ratings: parent and clinician ratings, 9 weeks
[6] = system: metastatic renal cell carcinoma; conditions: continuous infusion, 70% of the daily dose between 15:00 h and 21:00 h; cited from earlier work
[7] = system: arthritis; conditions: night versus 8:00 am; cited from earlier work
[8] = system: sleep-deprived F-117 pilots; conditions: 300 mg in three divided 100-mg doses; cited from earlier work
[9] = system: helicopter pilots; conditions: 600 mg in three doses, 8 hours of sleep in an 88 hour period; cited from earlier work
[10] = low, medium and high concentrations, 16 hours, 12 human subjects
Description: The device, described herein, was tested on 12 healthy male volunteers for an open, three-periods, single center, dose-escalation study using nicotine as the model compound.

[11] = human cadaver skin dermatomed to 0.5 mm, 10 cm^2, 100 mg/ml in ethanol/water 1/1, 200 ul doses, EVA membrane
Description: The area of skin permeation was 10 cm^2. […] Each time, 200 µl of formulation was dispensed on a 10 cm^2 surface area of interface of diffusion, separated from the skin by the EVA membrane. […] Additionally, the dose quantity was strictly controlled and monitored. Drug flux samples were obtained using a flow-through Franz cell permeation system with samples collected every 15 minutes. Hourly time point samples were analyzed and recorded. Samples were analyzed by UV/Vis spectrophotometry.

[12] = oral dosing with 5 mg or transdermally with 39 mg; cited from earlier work
[13] = evening versus morning; cited from earlier work
[14] = system: smoking; conditions: in vivo; cited from earlier work

O=C(C[S+]([O-])C(c1ccccc1)c1ccccc1)NO (stereo not shown) [Adrafinil]
half-life [1]: about 60 minutes | time to peak concentration [1]: about 60 minutes

O=C(c1ccc2nonc2c1)N1CCOCC1 [CX717]
performance after receiving the drug [2]: performed faster and better | cognitive performance [3]: did not improve cognitive performance

CNCC[C@@H](Oc1ccccc1C)c1ccccc1 [atomoxetine]
half-life average [4]: 3.12 h | time of peak plasma concentration after dosing [4]: 1 to 2 h | tolerability ([5]; in vivo): well tolerated | ADHD symptoms and global ratings [5]: associated with reductions in ADHD symptoms and improved global ratings

O=c1[nH]c(=O)n([C@H]2C[C@H](O)[C@@H](CO)O2)cc1F [fluorodeoxyuridine]
objective response [6]: 29%

COc1ccc2c(c1)c(CC(=O)O)c(C)n2C(=O)c1ccc(Cl)cc1 [indomethacin]
efficacy and patient compliance by time of dosing [7]: better efficacy and patient compliance when dosed at night than when dosed at 8:00 am

COC(=O)C(c1ccccc1)C1CCCCN1 (stereo not shown) [methylphenidate]
tolerability ([5]; atomoxetine twice daily, methylphenidate 2 or 3 times daily): well tolerated | ADHD symptoms and global ratings [5]: associated with reductions in ADHD symptoms and improved global ratings

NC(=O)C[S+]([O-])C(c1ccccc1)c1ccccc1 (stereo not shown) [modafinil]
flight control accuracy sustained to within percent of baseline levels [8]: about 27% | alertness of pilots [9]: can be used to keep pilots alert

CN1CCCC1c1cccnc1 (stereo not shown) [nicotine]
blood plasma concentration profile [10]: clear and distinct peaks and troughs of therapeutically effective and well-targeted blood plasma concentration levels | maximum transdermal flux value [11]: 160 ng/cm^2/hr

CCN(CC)CC#CCOC(=O)C(O)(c1ccccc1)C1CCCCC1 (stereo not shown) [oxybutynin]
mean maximum blood plasma concentration [12]: 3 ng/mL

CCCC(CCC)C(=O)O [valproate]
absorption by time of day [13]: absorb it more slowly and less efficiently when they take it in the evening than in the morning

c1cnc2cc3c(cc2n1)[C@@H]1CNC[C@H]3C1 [varenicline]
chances of quitting smoking [14]: can more than double the chances of quitting smoking

From patent publication US9669199B2, “Biosynchronous transdermal drug delivery for longevity, anti-aging, fatigue management, obesity, weight loss, weight management, delivery of nutraceuticals, and the treatment of hyperglycemia, alzheimer's disease, sleep disorders, parkinson's disease, aids, epilepsy, attention deficit disorder, …” (Chrono Therapeutics Inc., priority 2004, dated 2017)
